Measurements: BindingDB's records for doi:10.1021/acs.jmedchem.1c00124 (Hemoshear Therapeutics, 2021)

Columns and labels:
[1] = Direct inhibition of CYP1A2 in human liver microsomes using Phenacetin as substrate
[2] = Time-dependent inhibition of CYP2C8 in human liver microsomes using amodiaquine as substrate preincubated for 30 mins
[3] = Direct inhibition of CYP2C19 in human liver microsomes using S-mephenytoin as substrate
[4] = Time-dependent inhibition of CYP2C9 in human liver microsomes using diclofenac as substrate preincubated for 30 mins
[5] = Time-dependent inhibition of CYP2D6 in human liver microsomes using bufuralol as substrate preincubated for 30 mins
[6] = Direct inhibition of CYP2C9 in human liver microsomes using diclofenac as substrate
[7] = Time-dependent inhibition of CYP1A2 in human liver microsomes using Phenacetin as substrate preincubated for 30 mins
[8] = Direct inhibition of CYP2C8 in human liver microsomes using amodiaquine as substrate
[9] = Time-dependent inhibition of CYP2C19 in human liver microsomes using S-mephenytoin as substrate preincubated for 30 mins
[10] = Direct inhibition of CYP2D6 in human liver microsomes using bufuralol as substrate

Measured: IC50

CCC(C)(C)C(=O)O [2,2-DIMETHYLBUTYRATE]
> 10 mM: all assays above
